This note sets out measurements from patent US8178506B2, “Oligomeric compounds and compositions for use in modulation of small non-coding RNAs” (Regulus Therapeutics Inc., priority 2003, dated 2012).

Holding throughout (type): cell-based, human
Data set [1] concerns PPARγ. Nature of the data set: PPARγ mRNA expression in adipocytes (real-time PCR). As to the method:
(§1) Expression of the four hallmark genes, HSL, aP2, Glut4, and PPARγ, is also measured in adipocytes transfected with oligomeric compounds of the invention. Cells are lysed on day nine post-transfection and total RNA is harvested. The amount of total RNA in each sample is determined using a Ribogreen Assay (Invitrogen Life Technologies, Carlsbad, Calif.).
(§2) For assaying adipocyte differentiation, expression of the four hallmark genes, HSL, aP2, Glut4, and PPARγ, as well as triglyceride (TG) accumulation and leptin secretion were measured in adipocytes transfected with the uniform 2′-MOE phosphorothioate (PS) oligomeric compounds previously described. Cells are lysed on day nine post-transfection, in a guanadinium-containing buffer and total RNA is harvested. Real-time PCR is performed (Applied Biosystems, Prism 7700) on the total RNA using the following primer/probe sets for the adipocyte differentiation hallmark genes: (aP2): forward 5′-GGTGGTGGAATGCGTCATG-3′ (SEQ ID NO: 746), reverse 5′-[…]-3′ (SEQ ID NO: 747), probe 5′-FAM-[…]-TAMRA-3′ (SEQ ID NO: 748); (Glut4): forward 5′-GGCCTCCGCAGGTTCTG-3′ (SEQ ID NO: 749), reverse 5′-[…]-3′ (SEQ ID NO: 750), probe 5′-FAM-[…]-TAMRA-3′ (SEQ ID NO: 751); (HSL): forward 5′-ACCTGCGCACAATGACACA-3′ (SEQ ID NO: 752), reverse 5′-[…]-3′ (SEQ ID NO: 753), probe 5′-FAM-[…]-TAMRA-3′ (SEQ ID NO: 754); (PPAR-γ): forward 5′-[…]-3′ (SEQ ID NO: 755), reverse 5′-[…]-3′ (SEQ ID NO: 756), probe 5′-FAM-[…]-TAMRA-3′ (SEQ ID NO: 757). The amount of total RNA in each sample is determined using a Ribogreen Assay (Molecular Probes, Eugene, Oreg.), and expression levels of the adipocyte differentiation hallmark genes were normalized to total RNA.

Data set [2] deals with aP2. The data set can be described thus: aP2 mRNA expression in adipocytes (real-time PCR). Particulars: for aP2 mRNA: differentiating adipocytes transfected with oligomeric compound, Table 75. As to the method:
as §1, §2

For data set [3], the system named is Glut4. Nature of the data set: Glut4 mRNA expression in adipocytes (real-time PCR). As to the method: as §1, §2
The subject of data set [4] is HSL. The data set can be described thus: HSL mRNA expression in adipocytes (real-time PCR). Here is the method: as §1, §2
In general terms: Real-time PCR tracks product formation cycle by cycle.

Data set [5] deals with adipocytes. Nature of the data set: Triglyceride accumulation assay in adipocytes. Here is the method: The triglyceride accumulation assay measures the synthesis of triglyceride by adipocytes. Triglyceride accumulation is measured using the Infinity™ Triglyceride reagent kit (Sigma-Aldrich, St. Louis, Mo.). On day nine post-transfection, cells are washed and lysed at room temperature, and the triglyceride assay reagent is added. Triglyceride accumulation is measured based on the amount of glycerol liberated from triglycerides by the enzyme lipoprotein lipase. Liberated glycerol is phosphorylated by glycerol kinase, and hydrogen peroxide is generated during the oxidation of glycerol-1-phosphate to dihydroxyacetone phosphate by glycerol phosphate oxidase. Horseradish peroxidase (HRP) uses H2O2 to oxidize 4-aminoantipyrine and 3,5 dichloro-2-hydroxybenzene sulfonate to produce a red-colored dye. Dye absorbance, which is proportional to the concentration of glycerol, is measured at 515 nm using an UV spectrophotometer. Glycerol concentration is calculated from a standard curve for each assay, and data are normalized to total cellular protein as determined by a Bradford assay (Bio-Rad Laboratories, Hercules, Calif.).
An increase in triglyceride content is another well-established marker for adipocyte differentiation. The triglyceride accumulation assay measures the synthesis of triglyceride by adipocytes. Triglyceride accumulation was measured using the Infinity™ Triglyceride reagent kit (Sigma-Aldrich, St. Louis, Mo.). Human white preadipocytes (Zen-Bio Inc., Research Triangle Park, N.C.) were grown in preadipocyte media (ZenBio Inc.). One day before transfection, 96-well plates were seeded with 3000 cells/well. Cells were transfected according to standard published procedures with 250 nM oligomeric compound in LIPOFECTIN™ (Invitrogen Corporation, Carlsbad, Calif.) (Monia et al., J. Biol. Chem. 1993 268(19):14514-22). Oligomeric compounds were tested in triplicate on each 96-well plate, and the effects of TNF-α, a positive drug control that inhibits adipocyte differentiation, were also measured in triplicate. Negative and transfectant-only controls may be measured up to six times per plate. After the cells have reached confluence (approximately three days), they were exposed to differentiation media (Zen-Bio, Inc.) containing a PPAR-γ agonist, IBMX, dexamethasone, and insulin for three days. Cells were then fed adipocyte media (Zen-Bio, Inc.), which was replaced at 2 to 3 day intervals. […] Triglyceride accumulation was measured based on the amount of glycerol liberated from triglycerides by the enzyme lipoprotein lipase. Liberated glycerol is phosphorylated by glycerol kinase, and hydrogen peroxide is generated during the oxidation of glycerol-1-phosphate to dihydroxyacetone phosphate by glycerol phosphate oxidase. Horseradish peroxidase (HRP) uses H2O2 to oxidize 4-aminoantipyrine and 3,5 dichloro-2-hydroxybenzene sulfonate to produce a red-colored dye. Dye absorbance, which is proportional to the concentration of glycerol, was measured at 515 nm using an UV spectrophotometer. Glycerol concentration was calculated from a standard curve for each assay, and data were normalized to total cellular protein as determined by a Bradford assay (Bio-Rad Laboratories, Hercules, Calif.). Results are expressed as a percent±standard deviation relative to transfectant-only control.

Where [6] appears, read: differentiating adipocytes transfected with oligomeric compound, Table 75.
Setting [7] is: Table 18, differentiating adipocytes, control = treatment with ISIS 342673.
Setting [8] is: 300 nM, differentiating adipocytes day 10 post-induction, 24 hours after treatment.
[9] abbreviates: Table 17, differentiating adipocytes, control = treatment with ISIS 342673.

In the oligonucleotide strings, read from the 5' end, every base follows the letter of its sugar. An asterisk marks phosphorothioate; unmarked linkages are phosphodiester. Other units and linkages are bracketed, terminal groups are in braces. A string of capitals states the bases alone. e = 2'-O-(2-methoxyethyl) (MOE); [5mC] = 5-methylcytosine; d = 2'-deoxy (DNA)

In the case of “346906 (ACAGGAUUGAGGGGGGGCCCU; all 2'-MOE, all phosphorothioate, methylation of C and T or U not given here) [compound 346906]”, the “PPAR gamma mRNA” value in data set [1] (setting [6]) is 80 percentage of untreated control (UTC). In data set [2], the “aP2 mRNA” value is 77 percentage of untreated control (UTC). The “GLUT4 mRNA” value in data set [3] (setting [6]) is recorded as 70 percentage of untreated control (UTC). In addition, the “HSL mRNA” value in data set [4] (setting [6]) is 70 percentage of untreated control (UTC). Besides, in data set [5] (setting [6]), the “TG (triglyceride accumulation)” value is 83 percentage of untreated control (UTC).

Regarding “340352 (antisense CACAAGAUCGGAUCUACGGGUU; all 2'-MOE, all phosphorothioate, methylation of C and T or U not given here) [compound 340352]”, the “PPAR gamma mRNA” value in data set [1] (setting [6]) was 102 percentage of untreated control (UTC). Also, in data set [2], the “aP2 mRNA” value was 107 percentage of untreated control (UTC). Also, the “GLUT4 mRNA” value in data set [3] (setting [6]) was 97 percentage of untreated control (UTC). Also, in data set [4] (setting [6]), the “HSL mRNA” value was 123 percentage of untreated control (UTC). Moreover, the “TG (triglyceride accumulation)” value in data set [5] (setting [6]) is given as 110 percentage of untreated control (UTC).

With “328106 (antisense eA*eT*eT*eG*eA*eT*eG*e[5mC]*eG*e[5mC]*e[5mC]*eA*eT*eT*eT*eG*eG*e[5mC]*e[5mC]*eT*eA) [compound 328106]”, the “PPAR gamma mRNA” value in data set [1] (setting [7]) is listed as 90.7 percentage of control; in data set [1] (setting [6]) it was 81 percentage of untreated control (UTC). The “AP2 mRNA” value in data set [2] (setting [7]) is 88.8 percentage of control. Further, the “aP2 mRNA” value in data set [2] is 91 percentage of untreated control (UTC). Further, the figures for the “GLUT4 mRNA” value in data set [3] (setting [7]) and in data set [3] (setting [6]) were 105.7 percentage of control and 79 percentage of untreated control (UTC), respectively. Moreover, the “HSL mRNA” value is on record as 94.9 percentage of control in data set [4] (setting [7]) and 86 percentage of untreated control (UTC) in data set [4] (setting [6]). In addition, the “TG (triglyceride accumulation)” value in data set [5] (setting [7]) was 90.5 percentage of control; in data set [5] (setting [6]), 70 percentage of untreated control (UTC).

For the substance “346694 (AACCCAUGGAAUUCAGUUCUCA; all 2'-MOE, all phosphorothioate, methylation of C and T or U not given here) [compound 346694]”, the “PPAR gamma mRNA” value in data set [1] (setting [6]) is recorded as 32 percentage of untreated control (UTC). Besides, in data set [2], the “aP2 mRNA” value is on record as 41 percentage of untreated control (UTC). In data set [3] (setting [6]), the “GLUT4 mRNA” value is 5 percentage of untreated control (UTC). Also, in data set [4] (setting [6]), the “HSL mRNA” value is on record as 18 percentage of untreated control (UTC). Also, in data set [5] (setting [6]), the “TG (triglyceride accumulation)” value is 31 percentage of untreated control (UTC).

For “105990 (antisense AGCAAAAGATCAATCCGTTA; sugars from the 5' end e5 d10 e5, backbone and methylation of C not given here) [compound 105990]”, in data set [1] (setting [8]), the “PPAR-gamma mRNA” value came to 43.9 % UTC. Besides, the “PPAR gamma mRNA” value in data set [1] (setting [9]) was 51.8 percentage of control; in data set [1] (setting [7]) it was 60.1 percentage of control. In addition, the figures for the “AP2 mRNA” value in data set [2] (setting [8]), in data set [2] (setting [9]) and in data set [2] (setting [7]) were 17.9 % UTC, 51.6 percentage of control and 49.8 percentage of control, respectively. Besides, the figures for the “GLUT4 mRNA” value in data set [3] (setting [8]), in data set [3] (setting [9]) and in data set [3] (setting [7]) were 11.8 % UTC, 59.5 percentage of control and 68.1 percentage of control, respectively. Besides, the results for the “HSL mRNA” value in data set [4] (setting [8]), in data set [4] (setting [9]) and in data set [4] (setting [7]) were 7.4 % UTC, 49.2 percentage of control and 52.0 percentage of control, respectively. The substance also gave a Triglycerides in data set [5] (setting [8]) of 16.6 % UTC. For the same substance, the “TG (triglyceride accumulation)” value is on record as 28.2 percentage of control in data set [5] (setting [9]) and 32.8 percentage of control in data set [5] (setting [7]).

With “328102 (antisense eG*e[5mC]*e[5mC]*e[5mC]*e[5mC]*eA*eT*eT*eA*eA*eT*eA*eT*eT*eT*eT*eA*eA*e[5mC]*e[5mC]*eA) [compound 328102]”, the figures for the “PPAR gamma mRNA” value in data set [1] (setting [7]) and in data set [1] (setting [6]) were 93.7 percentage of control and 94 percentage of untreated control (UTC), respectively. Further, the “AP2 mRNA” value in data set [2] (setting [7]) is recorded as 87.9 percentage of control. In addition, in data set [2], the “aP2 mRNA” value is 96 percentage of untreated control (UTC). The “GLUT4 mRNA” value is 79.2 percentage of control in data set [3] (setting [7]) and 58 percentage of untreated control (UTC) in data set [3] (setting [6]). Besides, the “HSL mRNA” value in data set [4] (setting [7]) is reported as 97.0 percentage of control; in data set [4] (setting [6]), 99 percentage of untreated control (UTC). The “TG (triglyceride accumulation)” value is recorded as 95.9 percentage of control in data set [5] (setting [7]) and 70 percentage of untreated control (UTC) in data set [5] (setting [6]).

Turning to “328092 (antisense eG*eG*eT*eA*eG*eG*eT*eG*eG*eA*eA*eT*eA*e[5mC]*eT*eA*eT*eA*eA*e[5mC]*eA) [compound 328092]”, in data set [1] (setting [6]), the “PPAR gamma mRNA” value was 86 percentage of untreated control (UTC). Also, the “aP2 mRNA” value in data set [2] was 74 percentage of untreated control (UTC). In addition, the “GLUT4 mRNA” value in data set [3] (setting [6]) is on record as 78 percentage of untreated control (UTC). Further, the “HSL mRNA” value in data set [4] (setting [6]) is 80 percentage of untreated control (UTC). Also, the “TG (triglyceride accumulation)” value in data set [5] (setting [6]) is given as 134 percentage of untreated control (UTC).

On to “346919 (CUACCUGCACGAACAGCACUUUG; all 2'-MOE, all phosphorothioate, methylation of C and T or U not given here) [compound 346919]”, for which, in data set [1] (setting [6]), the “PPAR gamma mRNA” value was 65 percentage of untreated control (UTC). For the same substance, the “aP2 mRNA” value in data set [2] is given as 64 percentage of untreated control (UTC). Further, the “GLUT4 mRNA” value in data set [3] (setting [6]) is given as 50 percentage of untreated control (UTC). In data set [4] (setting [6]), the “HSL mRNA” value was 45 percentage of untreated control (UTC). Also, the “TG (triglyceride accumulation)” value in data set [5] (setting [6]) is 44 percentage of untreated control (UTC).

As for “346910 (GCAAUCAGCUAACUACACUGCCU; all 2'-MOE, all phosphorothioate, methylation of C and T or U not given here) [compound 346910]”, the “PPAR gamma mRNA” value in data set [1] (setting [6]) was 83 percentage of untreated control (UTC). Also, the “aP2 mRNA” value in data set [2] is 78 percentage of untreated control (UTC). The “GLUT4 mRNA” value in data set [3] (setting [6]) was 63 percentage of untreated control (UTC). In addition, the “HSL mRNA” value in data set [4] (setting [6]) is 69 percentage of untreated control (UTC). The “TG (triglyceride accumulation)” value in data set [5] (setting [6]) is 80 percentage of untreated control (UTC).
